From ChEMBL document CHEMBL1157692, “Probing the carbohydrate recognition domain of E-selectin: the importance of the acid orientation in sLex mimetics” (Bioorg Med Chem, 2010)
The source made the active and inactive calls. No cut-off for these calls is given here.

Target: T1, E-selectin (Homo sapiens) (UniProt P16581)
T1 sequence (whole entry): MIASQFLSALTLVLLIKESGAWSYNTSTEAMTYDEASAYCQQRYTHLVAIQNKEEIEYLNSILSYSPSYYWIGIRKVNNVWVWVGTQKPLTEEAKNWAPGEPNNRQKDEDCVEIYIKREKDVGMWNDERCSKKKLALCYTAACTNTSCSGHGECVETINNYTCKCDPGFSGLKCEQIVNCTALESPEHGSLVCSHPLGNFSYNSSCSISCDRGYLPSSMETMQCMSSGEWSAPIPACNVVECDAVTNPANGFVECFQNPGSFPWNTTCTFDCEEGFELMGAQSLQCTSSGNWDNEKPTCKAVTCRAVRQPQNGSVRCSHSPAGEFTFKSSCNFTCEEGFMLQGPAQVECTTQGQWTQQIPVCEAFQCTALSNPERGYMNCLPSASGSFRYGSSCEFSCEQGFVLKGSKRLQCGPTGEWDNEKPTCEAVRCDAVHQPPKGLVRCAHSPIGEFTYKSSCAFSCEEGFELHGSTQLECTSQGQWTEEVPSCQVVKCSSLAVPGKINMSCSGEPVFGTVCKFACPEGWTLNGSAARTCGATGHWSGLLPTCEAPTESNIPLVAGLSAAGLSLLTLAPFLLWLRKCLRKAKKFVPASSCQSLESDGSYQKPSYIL
Experiment: Ratio of compound IC50 to sialyl Lewis X IC50 for E-selectin by ELISA

Row | Structure (SMILES) | Ratio IC50
1 | C[C@@H]1O[C@@H](O[C@@H]2CCCC[C@H]2O[C@@H]2O[C@H](CO)[C@H](O)[C@H](O[C@@H](CC3CCCCC3)C(=O)O)[C@H]2O)[C@@H](O)[C@H](O)[C@@H]1O | 0.08
2 | C[C@@H]1O[C@@H](O[C@@H]2CCCC[C@H]2O[C@@H]2O[C@H](CO)[C@H](O)[C@H](O[C@@H](CN=[N+]=[N-])C(=O)O)[C@H]2O)[C@@H](O)[C@H](O)[C@@H]1O | 0.29
3 | C[C@@H]1O[C@@H](O[C@@H]2CCCC[C@H]2O[C@@H]2O[C@H](CO)[C@H](O)[C@H](O[C@@H](Cn3ccnn3)C(=O)O)[C@H]2O)[C@@H](O)[C@H](O)[C@@H]1O | 0.48
4 | C[C@@H]1O[C@@H](O[C@@H]2CCCC[C@H]2O[C@@H]2O[C@H](CO)[C@H](O)[C@H](O[C@@H](Cn3cc(Cn4nnc5c4CCCC5)nn3)C(=O)O)[C@H]2O)[C@@H](O)[C@H](O)[C@@H]1O | 1.22

Other lines, results leading:

Row | Ratio IC50 | Structure (SMILES)
5 | 3.13 | C[C@@H]1O[C@@H](O[C@@H]2CCCC[C@H]2O[C@@H]2O[C@H](CO)[C@H](O)[C@H](O[C@@H](Cn3cc(-c4cccnc4)nn3)C(=O)O)[C@H]2O)[C@@H](O)[C@H](O)[C@@H]1O
6 | 0.88 | C[C@@H]1O[C@@H](O[C@@H]2CCCC[C@H]2O[C@@H]2O[C@H](CO)[C@H](O)[C@H](O[C@@H](Cn3cc(-c4ccsc4)nn3)C(=O)O)[C@H]2O)[C@@H](O)[C@H](O)[C@@H]1O
7 | 1.03 | C[C@@H]1O[C@@H](O[C@@H]2CCCC[C@H]2O[C@@H]2O[C@H](CO)[C@H](O)[C@H](O[C@@H](Cn3cc(Cc4ccccc4)nn3)C(=O)O)[C@H]2O)[C@@H](O)[C@H](O)[C@@H]1O
8 | 1.18 | C[C@@H]1O[C@@H](O[C@@H]2CCCC[C@H]2O[C@@H]2O[C@H](CO)[C@H](O)[C@H](O[C@@H](Cn3cc(Cn4nnc5ccccc54)nn3)C(=O)O)[C@H]2O)[C@@H](O)[C@H](O)[C@@H]1O

Target: T1, E-selectin (Homo sapiens)
Experiment: Inhibition of CGP-69669A binding to E-selectin by ELISA

Row | Structure (SMILES) | inhibition
9 | C[C@@H]1O[C@@H](O[C@@H]2CCCC[C@H]2O[C@@H]2O[C@H](CO)[C@H](O)[C@H](O[C@@H](Cn3cc(-c4cccc(C(F)(F)F)c4)nn3)C(=O)O)[C@H]2O)[C@@H](O)[C@H](O)[C@@H]1O | inactive

Target: T1, E-selectin (Homo sapiens)
Experiment: Ratio of sialyl Lewis X IC50 to compound IC50 for E-selectin by ELISA

Row | Structure (SMILES) | Ratio IC50
10 | C[C@@H]1O[C@@H](O[C@@H]2CCCC[C@H]2O[C@@H]2O[C@H](CO)[C@H](O)[C@H](O[C@@H](CC3CCCCC3)C(=O)O)[C@H]2O)[C@@H](O)[C@H](O)[C@@H]1O | 12
